According to the supplement of paper PMC11208160:

assay: recombinant UMI read abundance after kanamycin selection (control-corrected) (log10(CPM+1)); higher = more efficient recombination; extreme values may be limits of the assay; sequences stand for … in AGTGCAGAGAAAATCGGCCAGTTTTCTCTGCCTGCAGTCCGCATGCCGTGGGACCCCTTGGGTTCTAACCTGTTGCCTAGATTTATGCAGCGGACTGCCTTTCTCCCAAAGTGATAAACCGG…AGGTTGGTTTCACT; site = the 11-nt donor
Procedure, shortened: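 Values are reported as log10(CPM+1), obtained by converting sequencing counts to CPM, averaging replicates and scaling by control-derived factors. The counts came from recombinant UMIs amplified by PCR across the donor–target junction. These UMIs came from a pooled Escherichia coli screen of donor and donor-binding-loop pairs for the IS621 bridge recombinase, plated with IPTG (0.07 mM) plus kanamycin or left unselected, in two replicates each.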
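Also: IS621 bridge recombinase in Escherichia coli cells against a fixed T5 target plasmid.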

Point of comparison: “TGGGAATCATGGACCGGTTTTCCCGGTAATCCGTATTTGCG (site TGGGAATCTCG)”, “recombinant UMI read abundance (log10)” value 2.5. Against it:
- TGCGAGGCATGGACCGGTTTTCCCGGTAATCCGTATTTGGT (site TGCTAGGCTAC) — lower, 0.242
- GAGCTCACATGGACCGGTTTTCCCGGTAATCCGTATTTGAG (site GAGCTCACTAT) — lower, 0.277
- GATGATTCATGGACCGGTTTTCCCGGTAATCCGTATTTGTT (site GAGGATTCTAA) — lower, 0
- GGAACCCCATGGACCGGTTTTCCCGGTAATCCGTATTTGTC (site GGAACCCCTGA) — lower, 0.334
- ACGCGAACATGGACCGGTTTTCCCGGTAATCCGTATTTGTC (site ACTCGAACTGA) — lower, 0
- CAGACCGCATGGACCGGTTTTCCCGGTAATCCGTATTTGAT (site CAGACCGCTAT) — higher, 2.7
- ACTCGTGCATGGACCGGTTTTCCCGGTAATCCGTATTTGAG (site ACTCGTGCTCT) — lower, 1.4
- ATATAGACATGGACCGGTTTTCCCGGTAATCCGTATTTGCT (site ATATAGACTAG) — higher, 2.72
- GTCAGAACATGGACCGGTTTTCCCGGTAATCCGTATTTGGC (site GTTAGAACTGC) — lower, 0
- AGGTTCCCATGGACCGGTTTTCCCGGTAATCCGTATTTGTG (site AGGTTCCCTTA) — lower, 0
- TTTCCGACATGGACCGGTTTTCCCGGTAATCCGTATTTGTA (site TTTCCGACTTA) — lower, 0.018
- TTAGTCGCATGGACCGGTTTTCCCGGTAATCCGTATTTGCG (site ATAGTCGCTCG) — lower, 0.0346
- CGGCATGCATGGACCGGTTTTCCCGGTAATCCGTATTTGTT (site CGGAATCCTAA) — lower, 0.00719
- ACACATTCATGGACCGGTTTTCCCGGTAATCCGTATTTGAC (site ACACATACTGT) — lower, 0.745
- GATTGCCCATGGACCGGTTTTCCCGGTAATCCGTATTTGAT (site GGTTGCCCTAT) — lower, 0.00714
- AGCTTGTCATGGACCGGTTTTCCCGGTAATCCGTATTTGAG (site AGCTTGTCTCT) — lower, 1.62
- ACGGAGACATGGACCGGTTTTCCCGGTAATCCGTATTTGCA (site ACGGAGACTTG) — within 0.2 log units, 2.64
- CTACTCACATGGACCGGTTTTCCCGGTAATCCGTATTTGGA (site CTACTAACTTC) — lower, 0.63
- GGACTCACATGGACCGGTTTTCCCGGTAATCCGTATTTGCA (site GGACTCACTTG) — within 0.2 log units, 2.37
- ATCTGTACATGGACCGGTTTTCCCGGTAATCCGTATTTGAC (site ATCTATACTGT) — lower, 0
- AATGTAACATGGACCGGTTTTCCCGGTAATCCGTATTTGCT (site AATGTCACTAG) — lower, 0.198
- GCTGTTCCATGGACCGGTTTTCCCGGTAATCCGTATTTGGT (site GGTGTTCCTAC) — lower, 0.0107
- CTCTACACATGGACCGGTTTTCCCGGTAATCCGTATTTGAT (site CTCTACACTAC) — lower, 0.0649
- ACCCGTCCATGGACCGGTTTTCCCGGTAATCCGTATTTGAT (site AACCGTCCTAT) — lower, 0.00657
- ACAGTATCATGGACCGGTTTTCCCGGTAATCCGTATTTGCA (site ACATTACCTTG) — lower, 0
- GCGAAACCATGGACCGGTTTTCCCGGTAATCCGTATTTGCT (site GCGAAACCTAG) — lower, 0
- CAGTCGACATGGACCGGTTTTCCCGGTAATCCGTATTTGGT (site CAGTCGACTAC) — lower, 1.13
- ACAGTATCATGGACCGGTTTTCCCGGTAATCCGTATTTGCA (site ACGGTATCTCG) — lower, 0.00452
- GCTTGCCCATGGACCGGTTTTCCCGGTAATCCGTATTTGAT (site GCTTGCCCTAA) — lower, 0.00772
- AAGTAGGCATGGACCGGTTTTCCCGGTAATCCGTATTTGGC (site AGGTAGGCTGC) — lower, 0.265
- GACAGACCATGGACCGGTTTTCCCGGTAATCCGTATTTGGT (site GACAGACCTAC) — lower, 0.0145
- AATGTGTCATGGACCGGTTTTCCCGGTAATCCGTATTTGAC (site AATGTGTCTGA) — lower, 0
- AGCCTAGCATGGACCGGTTTTCCCGGTAATCCGTATTTGTT (site AGCCGAGCTAA) — lower, 0.0175
- GCTACTGCATGGACCGGTTTTCCCGGTAATCCGTATTTGTC (site GCTACTGCTGC) — lower, 0
- CAAAGCTCATGGACCGGTTTTCCCGGTAATCCGTATTTGAA (site CAAGGCTCTTT) — lower, 0.579
- GTGCATGCATGGACCGGTTTTCCCGGTAATCCGTATTTGTT (site GTGCATGCTAT) — lower, 1.31
